This passage reports TGI and GI50 results from PubChem BioAssay (NCI).

What all share (test): growth of human tumour cells (NCI), 48 h
The subject of assay [1] is 786-0 renal.
The test system of assay [2] is SK-MEL-2 melanoma.
For assay [3], the system named is SF-268 CNS.
Assay [4] relates to RPMI-8226 leukemia.
Assay [5] has as its system SW-620 colon.
For assay [6], the system named is HCC-2998 colon.
Assay [7] relates to OVCAR-8 ovarian.
Assay [8] deals with U251 CNS.
The subject of assay [9] is HCT-15 colon.
For assay [10], the system named is RXF 393 renal.

Several values for one entry are separate records, joined by “and”; a condition that tells them apart may be missing. Equal entries are not always repeated.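 Five compound concentrations were applied to cells in 96-well plates for 48 hours; endpoints were derived by simple linear interpolation of the resulting dose-response curve. At the GI50, growth is halved. At the TGI there is no net growth.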 A value given as a limit tells only on which side of the number the result lay.

On to `COC(=O)C1=CC(=O)[C@@H]2CCCC[C@H]12`, for which the TGI in assay [1], in [2], in [3], in assay [4], in assay [5] and in assay [6] was over 100 µM each time. In addition, the TGI in assay [7], in [8], in [9] and in assay [10] was over 100 µM in each case.

As for `CC1[C@@H]2CC=C3[C@H]4CCC5Cc6nc7c(nc6C[C@@]5(C)C4CC(=O)[C@]32CO[C@]12OC(C)(C)CC2O)CC1CC[C@@H]2C3=C[C@H]4O[C@@]5(O[C@@](C)(CO)C[C@@H]5O)C(C)[C@@]4(O)[C@]3(C)[C@@H](O)CC2[C@]1(C)C7` (some centres not stated), the GI50 in [1] was 0.000168 µM; in assay [2], 0.0011 µM and 0.00208 µM; in [3], 0.0011 µM and 0.00472 µM; in [4] it was 0.000106 µM and < 0.000365 µM; in assay [5], 0.000982 µM and 0.00204 µM; in assay [6], 0.292 µM. Besides, the GI50 was 0.000183 µM and 0.000365 µM in assay [8]; 0.0041 µM and 0.00763 µM in assay [9]; 0.000365 µM in assay [10]. Besides, the TGI in assay [1] is 0.0303 µM; in assay [2], 0.0242 µM and 0.0699 µM; in [3], 0.253 µM and 0.441 µM; in [4] it was 0.000261 µM and < 0.000365 µM; in assay [5] it was 0.0262 µM and 0.0526 µM; in assay [6], 0.912 µM and > 3.65 µM. Further, the TGI in assay [7] is 0.745 µM and > 3.65 µM; in assay [8], 0.129 µM and 0.0461 µM; in [9] it was 0.102 µM and 0.129 µM; in assay [10], 0.000428 µM and 0.00414 µM.

`O=C(CCN1CCCN(c2cnc3ccccc3n2)CC1)c1csc2ccccc12`: the GI50 in [1] was 18.4 µM; in assay [2], 27.3 µM; in [3] it was 19.4 µM; in assay [4], 12.6 µM; in [5] it was 17.4 µM; in [6], 16.9 µM. Besides, the GI50 in assay [7] was 21.6 µM; in [8] it was 17.6 µM; in assay [9] it was 18.9 µM; in [10] it was 19.4 µM. The TGI in [1] is 32.3 µM; in assay [2], 76.5 µM; in [3], 38.6 µM; in [4], 41.8 µM; in assay [5], 33.3 µM; in assay [6], 33.2 µM. In addition, the TGI in assay [7] amounted to 48.4 µM; in assay [8], 31.4 µM; in assay [9], 34.8 µM; in assay [10], 37.5 µM.

Take `COC(=O)c1cccc(NC(=O)c2ccc(NC3=C(Cl)C(=O)N(Cc4ccccc4)C3=O)cc2)c1`: the GI50 in assay [1] is 10.5 µM; in assay [2], 14.5 µM; in assay [3] it was 23 µM; in assay [4], 10.7 µM; in [5], 22.3 µM; in assay [6] it was 2.04 µM. Also, the GI50 in assay [7] was 11.4 µM; in assay [8] it was 12.7 µM; in assay [9] it was 2.29 µM; in assay [10], 13.9 µM. The TGI in [1] amounted to 25.2 µM; in [2], 44.2 µM; in assay [3] it was 54.9 µM; in assay [4], 23.9 µM; in [5], 86.5 µM; in assay [6], 3.77 µM. Moreover, the TGI came to 32.1 µM in [7], 28.3 µM in assay [8], 17.5 µM in assay [9] and 60.2 µM in [10].

For `Cc1cc(-c2cc(OC(=O)c3ccccc3)ccc2Cl)cc2nnc(Nc3ccc(OCCN4CCCC4)cc3)nc12`, the GI50 in [1] was 1.89 µM; in [2], 1.78 µM; in assay [3] it was 1.88 µM; in assay [4] it was 1.6 µM; in assay [5], 0.265 µM; in assay [6], 1.81 µM. In addition, the GI50 was 1.7 µM in assay [7], 1.65 µM in assay [8], 0.197 µM in [9] and 1.16 µM in assay [10]. The TGI turned out to be 3.5 µM in [1]; 3.45 µM in assay [2]; 3.75 µM in assay [3]; 3.63 µM in assay [4]; 0.571 µM in [5]; 3.37 µM in [6]. Also, the TGI in assay [7] worked out at 3.67 µM; in assay [8], 3.16 µM; in assay [9], 0.393 µM; in assay [10], 2.48 µM.

`C=C(Br)COc1ccc2c(C)cc(=O)oc2c1`: the TGI in assay [1], in assay [2], in assay [3], in assay [4], in assay [5] and in [6] was over 100 µM each time. Besides, the TGI in assay [7] is over 100 µM; in [8] it was over 100 µM; in assay [9], over 100 µM; in assay [10] it was 81 µM.

Take `COc1ccc(/C=C\c2cc(OC)c(OC)c(OC)c2)c(NS(=O)(=O)c2ccc(F)cc2)c1O`: the GI50 in assay [1] was 0.294 µM; in [2] it was 0.184 µM; in [3] it was 0.224 µM; in [4], 0.0448 µM; in assay [5] it was 0.0434 µM; in assay [6] it was 0.169 µM. In addition, the GI50 in [7] was 0.128 µM; in [8], 0.142 µM; in assay [9], 0.0752 µM; in [10], 0.0542 µM. The TGI in assay [1] is 47.5 µM; in [2] it was over 100 µM; in assay [3], over 100 µM; in [4], 18.9 µM; in assay [5] it was over 100 µM; in assay [6] it was 6.9 µM. Besides, the TGI in assay [7], in assay [8], in assay [9] and in [10] was over 100 µM each time.

Turning to `COc1cc(N2CCC(N)CC2)ccc1Nc1ncc(Cl)c(-c2c[nH]c3ccccc23)n1`, the GI50 is 0.546 µM in assay [1]; 0.23 µM in assay [2]; 0.846 µM in assay [3]; 1.28 µM in assay [4]; 0.183 µM in assay [5]; 0.649 µM in assay [6]. Further, the GI50 was 1.13 µM in assay [7], 0.407 µM in assay [8], 0.323 µM in assay [9] and 0.338 µM in assay [10]. Moreover, the TGI in assay [1] is 1.95 µM; in [2], 0.982 µM; in [3], 3.35 µM; in [4], 3.89 µM; in [5], 1.44 µM; in assay [6] it was 2.23 µM. The TGI worked out at 2.44 µM in [7], 1.79 µM in assay [8], 1.96 µM in assay [9] and 1.41 µM in assay [10].

Turning to `COC(=O)Nc1nc2ccc(C(=O)c3ccc(F)cc3)cc2[nH]1`, the GI50 is 0.578 µM in assay [1]; 4.14 µM in [2]; 0.644 µM in [3]; 0.434 µM in assay [4]; 0.0922 µM in assay [5]; 0.173 µM in assay [6]. Also, the GI50 was 0.639 µM in [7], 0.287 µM in assay [8], 0.0909 µM in assay [9] and 0.763 µM in assay [10]. Also, the TGI in [1] is 7.83 µM; in [2], over 49.8 µM; in assay [3], 7.65 µM; in assay [5], over 100 µM; in [7], over 31.6 µM; in [8], 6.68 µM. Besides, the TGI in [9] and in assay [10] was over 100 µM throughout.

Take `O=C(Cc1nc2ccccc2o1)C(=O)Nc1ccc(Cl)cc1Cl`: the TGI in assay [1], in assay [2], in assay [3], in [4], in [5] and in [6] was over 100 µM in each case. Further, the TGI in assay [7], in [8], in assay [9] and in [10] was over 100 µM in each case.

Take `Cn1c(=O)c(Oc2ccc(F)cc2F)cc2cnc(NCC(C)(C)O)nc21`: the GI50 in [1], in [2], in assay [3], in assay [4], in assay [5] and in assay [6] was over 25 µM throughout. The GI50 in assay [7], in assay [8], in assay [9] and in assay [10] was over 25 µM throughout. In addition, the TGI in [1], in assay [2], in assay [3], in [4], in assay [5] and in [6] was over 25 µM throughout. For the same compound, the TGI in assay [7], in assay [8], in assay [9] and in assay [10] was over 25 µM in each case.

For `Cc1cc(Cl)cc2c1NC(=O)C2(O)C(C(=O)c1ccccc1)c1ccccc1` (configuration not stated), the GI50 was 38.2 µM and 12.9 µM in [1]; 84.3 µM and 34.8 µM in assay [3]; > 100 µM and 32.5 µM in assay [7]; > 100 µM and 31.1 µM in [8]; 38 µM and 16.2 µM in assay [10]. Further, the TGI is > 100 µM and 29.3 µM in [1]; over 100 µM in assay [2]; > 100 µM and 95.3 µM in assay [3]; 64.5 µM and 42.4 µM in assay [4]; over 100 µM in [5]; > 100 µM and 60.4 µM in [6]. Also, the TGI in [7] was over 100 µM; in assay [8], over 100 µM; in [9], over 100 µM; in [10] it was 86.1 µM and 31.7 µM.

As to `COC(=O)c1c2c(c(C)[n+]([O-])c1C)C(=O)C(NCc1ccc(O)cc1)=CC2=O`, the GI50 in assay [1] is 2.11 µM; in assay [2], 1.79 µM; in [3] it was 1.64 µM; in assay [4], 1.78 µM; in [5] it was 0.934 µM; in assay [6] it was 1.46 µM. The GI50 in assay [7] was 1.08 µM; in assay [8], 1.77 µM; in [9], 1.43 µM; in assay [10] it was 1.5 µM. Further, the TGI in assay [1] worked out at 4.87 µM; in assay [2], 3.72 µM; in assay [3] it was 3.53 µM; in assay [4], 4.18 µM; in assay [5], 2.72 µM; in assay [6], 3.23 µM. Further, the TGI in assay [7] amounted to 6.47 µM; in assay [8], 5.26 µM; in assay [9], 3.18 µM; in assay [10], 2.98 µM.

For `CCc1ccccc1NC(=O)C(=O)C1C(=O)N(c2ccccc2)N=C1N` (configuration not stated), the TGI in [1], in [2], in assay [3], in assay [4], in assay [5] and in assay [6] was over 100 µM in each case. Also, the TGI in assay [7], in [8], in assay [9] and in assay [10] was over 100 µM in each case.

Consider `O=c1/c(=C\c2ccc(Br)cc2)sc2n1C(c1ccc(Br)cc1)C1=C(N=2)c2ccc3ccccc3c2OCC1` (configuration not stated), for which the GI50 in [1], in assay [2], in [3], in [4], in assay [5] and in [6] was over 100 µM each time. Also, the GI50 in assay [7], in assay [8], in [9] and in assay [10] was over 100 µM in each case. For the same compound, the TGI in [1], in assay [2], in [3], in assay [4], in [5] and in assay [6] was over 100 µM throughout. In addition, the TGI in assay [7], in [8], in [9] and in assay [10] was over 100 µM each time.

For `Cc1ccc(NC(=O)CC2SC(=Nc3ccc(Cl)cc3)NC2=O)cc1C` (configuration not stated), the TGI was determined as 32 µM in assay [1]; 17.9 µM in assay [2]; 33.4 µM in assay [3]; 21.2 µM in assay [4]; 18.5 µM in assay [5]; 33.6 µM in assay [6]. The TGI was 32.8 µM in [7], 32.7 µM in [8], 29.3 µM in [9] and 32 µM in assay [10].

As for `COc1c(B(O)O)cccc1-c1nc2c(F)cc3n[nH]c(C)c3c2c2c1CCCC2`, the GI50 in assay [1] was 0.661 µM; in assay [2], 1.45 µM; in assay [3], 0.666 µM; in [4] it was 0.655 µM; in [5], 0.727 µM; in assay [6], 2.45 µM. In addition, the GI50 in [7] was 1.22 µM; in assay [8] it was 1.12 µM; in [9], 1.49 µM; in [10], 0.044 µM. Also, the TGI is 10.5 µM in assay [1]; 3.6 µM in assay [2]; 49.3 µM in [3]; 4.81 µM in assay [4]; over 50 µM in [5]; 48.5 µM in [6]. Moreover, the TGI in assay [7] was over 50 µM; in assay [8] it was over 50 µM; in assay [9], over 50 µM; in [10], 0.924 µM.
